Test results reported in patent US5804577A, “Cephalosporin derivatives” (Hoffmann-La Roche Inc., priority 1995, dated 1998).
≈ marks a conversion by molar mass, not a printed value. Like-named read-outs stand apart in the source and are kept apart here.

What was measured:
Test in all cases: MIC by agar dilution method in Mueller Hinton agar
Type in all cases: cell-based
[1] = test system: S. viridans group 016; settings: Streptococcus viridans, GROUP016
Procedure: (§1) In vitro activity was determined by minimum inhibitory concentration in a microorganism spectrum by the agar dilution method in Mueller Hinton agar.

[2] = test system: S. pneumoniae Q19; settings: Streptococcus pneumoniae
Procedure: as §1

[3] = test system: Acinetobacter sp. 51-156; settings: SP.51156
Procedure: as §1

[4] = test system: H. influenzae 1; settings: Haemophilus influenzae
Procedure: as §1

[5] = test system: E. faecalis 6; settings: Enterococcus faecalis, 6
Procedure: as §1

[6] = test system: M. catarrhalis RA21; settings: Moraxella catarrhalis
Procedure: as §1

[7] = test system: S. aureus 734 MRSA; settings: Staphylococcus aureus, MRSA
Procedure: as §1

[8] = test system: S. agalactiae QK44; settings: Streptococcus agalactiae
Procedure: as §1

[9] = test system: E. cloacae 908SSi; settings: Enterobacter cloacae, 908SSI
Procedure: as §1

[10] = test system: S. marscescens 69438
Procedure: as §1

[11] = test system: P. aeruginosa 27853; settings: Pseudomonas aeruginosa
Procedure: as §1

[12] = test system: B. fragilis ATCC25285; settings: Bacteroides fragilis, ATCC25285
Procedure: as §1

[13] = test system: X. maltophilia 1AC739; settings: Stenotrophomonas maltophilia
Procedure: as §1

[14] = test system: P. vulgaris 1028; settings: Proteus vulgaris
Procedure: as §1

[15] = test system: E. cloacae 908R; settings: Enterobacter cloacae
Procedure: as §1

[16] = test system: C. difficile ZH1; settings: Clostridioides difficile, ZH1
Procedure: as §1

[17] = test system: C. freundii 43; settings: Citrobacter freundii, 43
Procedure: as §1

[18] = test system: L. monocytogenes BK23; settings: Listeria monocytogenes, BK23
Procedure: as §1

[19] = test system: P. asaccharolyticus 29743; settings: Peptoniphilus asaccharolyticus
Procedure: as §1

[20] = test system: S. aureus 6538; settings: Staphylococcus aureus, 6538
Procedure: as §1

[21] = test system: C. freundii 902; settings: Citrobacter freundii, 902
Procedure: as §1

[22] = test system: P. mirabilis 2117; settings: Proteus mirabilis, 2117
Procedure: as §1

[23] = test system: M. morganii 6H-137; settings: Morganella morganii, 6H137
Procedure: as §1

[24] = test system: K. pneumoniae 418; settings: Klebsiella pneumoniae, 418
Procedure: as §1

[25] = test system: E. coli 25922; settings: Escherichia coli, 25922
Procedure: as §1

Structure (SMILES)	MIC [1] [µg/mL]	MIC [2] [µg/mL]	MIC [4] [µg/mL]	MIC [5] [µg/mL]	MIC [7] [µg/mL]	MIC [8] [µg/mL]	MIC [9] [µg/mL]	MIC [10] [µg/mL]	MIC [17] [µg/mL]	MIC [18] [µg/mL]	MIC [20] [µg/mL]	also measured
Nc1nc(/C(=N/O)C(=O)N[C@@H]2C(=O)N3C(C(=O)O)=C(/C=C4\CCN(c5ccc(O)cc5)C4=O)CS[C@H]23)cs1 [A, (6R,7R)-7-[(Z)-2-(2-Amino-thiazol-4-yl)-2-hydroxyimino-acetylamino]-3-[(E)-1-(4-hydroxy-phenyl)-2-oxo-pyrrolidin-3-ylidenemethyl]-8-oxo-5-thia-1-azabicyclo[4.2.0]oct-2-ene-2-carboxylic acid]	0.25 (≈ 0.449 µM)	0.12 (≈ 0.216 µM)	0.25 (≈ 0.449 µM)	0.5 (≈ 0.898 µM)	4 (≈ 7.19 µM)	0.25 (≈ 0.449 µM)	0.25 (≈ 0.449 µM)	0.5 (≈ 0.898 µM)	4 (≈ 7.19 µM)	4 (≈ 7.19 µM)	0.25 (≈ 0.449 µM)	MIC ([3]; Acinetobacter sp. 51-156, read-out: MIC): 16 µg/mL (≈ 28.7 µM); MIC ([6]; M. catarrhalis RA21, read-out: MIC): 16 µg/mL (≈ 28.7 µM); MIC [11]; 27853: 4 µg/mL (≈ 7.19 µM); MIC [12]: 4 µg/mL (≈ 7.19 µM); MIC ([13]; X. maltophilia 1AC739, read-out: MIC): > 32 µg/mL; MIC ([14]; P. vulgaris 1028, read-out: MIC): 32 µg/mL (≈ 57.5 µM); MIC ([15]; E. cloacae 908R, read-out: MIC): 16 µg/mL (≈ 28.7 µM); MIC [16]: 8 µg/mL (≈ 14.4 µM); MIC [19]: 0.25 µg/mL (≈ 0.449 µM)
C=CC1=C(C(=O)O)N2C(=O)[C@@H](NC(=O)/C(=N\O)c3csc(N)n3)[C@H]2SC1 [I, [6R[6a,7b(Z)]7-(2-Amino-4-thiazolyl)[(hydroxyimino)]acetyl]amino3-ethenyl 8-oxo-5-thia-1-azabicyclo-[4.2.0]oct2-ene-2-carboxylic acid, reference compound]	2 (≈ 5.06 µM)	0.25 (≈ 0.632 µM)	0.5 (≈ 1.26 µM)	8 (≈ 20.2 µM)	> 32	0.25 (≈ 0.632 µM)	32 (≈ 80.9 µM)	16 (≈ 40.5 µM)	> 32	16 (≈ 40.5 µM)	0.5 (≈ 1.26 µM)	MIC ([3]; Acinetobacter): > 32 µg/mL; MIC [21]: 16 µg/mL (≈ 40.5 µM); MIC ([6]; RA21): 1 µg/mL (≈ 2.53 µM); MIC ([11]; P. aeruginosa 27853, read-out: MIC): > 32 µg/mL; MIC [22]: 0.12 µg/mL (≈ 0.303 µM); MIC ([13]; 1AC739): > 32 µg/mL; MIC [14]; 1028: 1 µg/mL (≈ 2.53 µM); MIC ([15]; 908R): > 32 µg/mL; MIC [23]: 8 µg/mL (≈ 20.2 µM); MIC [24]: 0.12 µg/mL (≈ 0.303 µM); MIC [25]: 0.25 µg/mL (≈ 0.632 µM)
